In patent publication US20170211073A1, “ANTISENSE ANTINEOPLASTIC AGENT” (priority 2014, published 2017):

Columns and labels:
[1] = test system: pancreatic cancer cell strain MIA PaCa-2; assay: Anticancer agent sensitivity enhancement, MIA PaCa-2; type: cell-based; details: antisense 5 nM, 5-FU, gemcitabine
Description: The #10 AmNA YB-1 antisense (5 nM) was introduced into cells of the pancreatic cancer cell strain MIA PaCa-2 (FIG. 19A) and ovarian cancer cell strain SKOV-3 (FIG. 19B) using the reagent Lipofectamine RNAiMax, and cell-killing effects of the anticancer agent observed in the presence and absence of the antisense were compared. […] The anticancer agent concentrations that provided equivalent cell-killing effects are shown in blue color (5-FU) or red color (gemcitabine).

YB-1 [2] = assay: YB-1 expression in AS44 by real-time RT-PCR; type: cell-based; details: Lipofectamine RNAiMax
Text: The #10 AmNA YB-1 antisense was introduced into cells of the gastric cancer cell strain AS44 using the reagent Lipofectamine RNAiMax, and expression of YB-1 was examined by real-time RT-PCR.

[3] = test system: malignant mesothelioma cell strain H226; assay: Proliferation of H226 cells; type: cell-based
YB-1 [4] = assay: YB-1 knockdown efficiency of NA, BNA and AmNA antisenses in HUVEC, HPAEC, MiaPaCa2 (real-time RT-PCR); type: cell-based; details: 24 hours, vs naturally occurring type and LNA type antisense
Description: YB-1 naturally occurring type nucleic acid antisense (NA), LNA/BNA type nucleic acid antisense (BNA), and AmNA type nucleic acid antisense (AmNA) were introduced into cells of the vascular endothelial cell strains (HUVEC, HPAEC) and the pancreatic cancer cell strain (MiaPaCa2-) at various concentrations. RNAs were extracted 24 hours afterward, and the YB-1 expression was evaluated by real-time RT-PCR. […] The graphs show mean±SD (n=3, *P<0.01 vs. BNA, P<0.0001 vs. NA)

[5] = test system: gemcitabine-resistant pancreatic cancer SUIT2-GR cells; assay: Repetitive administration into blood, SUIT2-GR subcutaneous tumor growth; type: in vivo, nude mice; details: 10 mg/kg BW caudal vein once a week over three weeks, days 14 and 21
Description: The tumor diameters were measured over time.

[6] = test system: gastric cancer cell strain AS44-luc; assay: AS44-luc peritoneum inoculation model, survival; type: in vivo; details: 10 mg/kg BW intraperitoneally once a week for two weeks, vs control group
Description: Peritoneum inoculation models of gastric cancer cell strain AS44-luc stably expressing luciferase were prepared. Then, after 1 week from the transplantation of the cancer cells, 10 mg/kg BW of #10 AmNA YB-1 antisense was intraperitoneally administered once a week for two weeks, and the tumor volume was evaluated over time in terms of the luciferase activity.

Substance: TCTcctgcaccCTGg (TCTCCTGCACCCTGG; chemistry not fully specified) [#10AmNA]
- cell-killing effects of the anticancer agent in presence of the antisense [1]: Enhancement of the cell-killing effect
- suppression of YB-1 expression (YB-1 [2]): Concentration-dependent suppression
- suppression of proliferation [3]: suppression of proliferation
- YB-1 knockdown efficiency (YB-1 [4]): significantly higher
- subcutaneous tumor-suppressing effect [5]: significant subcutaneous tumor-suppressing effect
- survival rate (Kaplan-Meier) [6]: significantly increased
